Results: ChEMBL document CHEMBL1201862, “PubChem BioAssay data set” (2004)
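Method: 48-hour compound exposure of cells in 96-well plates, five concentrations, linear interpolation of endpoints. GI50 = concentration required for 50% inhibition of growth.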 Activity calls are given as the source filed them. Rule as the data show it: active = GI50 up to about 1.1 µM and inactive = higher. *1 amine or outer side, *2 acyl side, *3 side chain or, on linkers, in order; H or OH if unused. Where a SMILES comes first, the peptide text is derived from it. Bridges are numbered along the chain shown (N, C = ends). Roman numbers before positions name the chains, in order. [ ]: non-standard residue; d: D form. Actinocin(9to1) = Cc1c2oc3c(C)ccc(C(=O)[*:1])c3nc-2c(C(=O)[*:2])c(N)c1=O; NMeV = CN[CH](C(=O)O)C(C)C; Sar = CNCC(=O)O

Tests used:
Assay in all cases: growth of human tumour cells (NCI), 48 h
786-0 = system: 786-0
ACHN = system: ACHN
EKVX = system: EKVX
HCC 2998 = system: HCC 2998
HCT-15 = system: HCT-15
HL-60 = system: HL-60
Hs-578T = system: Hs-578T
M14 = system: M14
MCF7 = system: MCF7
MDA-MB-435 = system: MDA-MB-435
NCI-H23 = system: NCI-H23
NCI-H460 = system: NCI-H460
PC-3 = system: PC-3
SF-268 = system: SF-268
SK-MEL-28 = system: SK-MEL-28
SK-MEL-5 = system: SK-MEL-5
SR = system: SR
T47D = system: T47D
UACC-257 = system: UACC-257
UO-31 = system: UO-31

| Structure (SMILES) | GI50 (786-0) | GI50 (ACHN) | GI50 (EKVX) | GI50 (HCC 2998) | GI50 (HCT-15) [µM] | GI50 (HL-60) | GI50 (Hs-578T) | GI50 (M14) | GI50 (MCF7) | GI50 (MDA-MB-435) | GI50 (NCI-H23) | GI50 (NCI-H460) | GI50 (PC-3) | GI50 (SF-268) | GI50 (SK-MEL-28) | GI50 (SK-MEL-5) | GI50 (SR) | GI50 (T47D) | GI50 (UACC-257) | GI50 (UO-31) |
| --- | --- | --- | --- | --- | --- | --- | --- | --- | --- | --- | --- | --- | --- | --- | --- | --- | --- | --- | --- | --- |
| O=c1ssc(Cl)c1Cl | > 4.7 µM (inactive) | > 7.26 µM (inactive) | > 10 µM (inactive) | > 10 µM (inactive) | > 10 | 2.47 µM (inactive) | > 10 µM (inactive) | > 10 µM (inactive) | > 7.78 µM (inactive) | > 10 µM (inactive) | > 10 µM (inactive) | > 10 µM (inactive) | > 10 µM (inactive) | > 10 µM (inactive) | > 10 µM (inactive) | > 10 µM (inactive) | > 10 µM (inactive) | > 10 µM (inactive) | > 7.19 µM (inactive) | > 4.93 µM (inactive) |
| COc1cc(CNCc2cc(OC)c(OC)c(OC)c2)cc(OC)c1OC | > 10 µM (inactive) | > 10 µM (inactive) | > 10 µM (inactive) | > 10 µM (inactive) | > 10 | > 4.62 µM (inactive) | > 10 µM (inactive) | > 10 µM (inactive) | > 10 µM (inactive) | > 10 µM (inactive) | > 10 µM (inactive) | > 10 µM (inactive) | > 10 µM (inactive) | > 10 µM (inactive) | > 10 µM (inactive) | > 10 µM (inactive) | > 5.38 µM (inactive) | > 10 µM (inactive) | > 10 µM (inactive) | > 10 µM (inactive) |
| N#CC1(C#N)C(C#N)(C#N)C1(C#N)C(N)=O | > 100 µM (inactive) | > 100 µM (inactive) | > 100 µM (inactive) | > 100 µM (inactive) | > 100 | > 100 µM (inactive) | > 100 µM (inactive) | > 100 µM (inactive) | > 100 µM (inactive) | > 100 µM (inactive) | > 100 µM (inactive) | > 100 µM (inactive) | > 100 µM (inactive) | > 100 µM (inactive) | > 100 µM (inactive) | > 100 µM (inactive) | > 100 µM (inactive) | > 100 µM (inactive) | > 100 µM (inactive) | > 100 µM (inactive) |
| O=c1[nH]nc(Cc2ccc(Cl)cc2)n1/N=C/c1ccc([N+](=O)[O-])o1 | 2.23 µM (inactive) | 2.12 µM (inactive) | 4.63 µM (inactive) | 2.13 µM (inactive) | 2.21 | 1.87 µM (inactive) | 2.25 µM (inactive) | 2.17 µM (inactive) | 1.75 µM (inactive) | 2.4 µM (inactive) | 3.34 µM (inactive) | 3.4 µM (inactive) | 3.08 µM (inactive) | 2.25 µM (inactive) | 3.03 µM (inactive) | 2.61 µM (inactive) | 2.17 µM (inactive) | 21.4 µM (inactive) | 2.77 µM (inactive) | 2.16 µM (inactive) |
| O=C1c2ccccc2-c2c1c1ccccc1c(=O)n2-c1cccnc1 | 9.91 µM (inactive) | 23.2 µM (inactive) | > 44.2 µM (inactive) | > 100 µM (inactive) | 24.9 | > 10 µM (inactive) | 37 µM (inactive) | > 100 µM (inactive) | 22.5 µM (inactive) | > 100 µM (inactive) | 37.8 µM (inactive) | 6.24 µM (inactive) | > 54.3 µM (inactive) | 29.5 µM (inactive) | > 100 µM (inactive) | 73.5 µM (inactive) | 5.53 µM (inactive) | > 64.4 µM (inactive) | > 100 µM (inactive) | > 48.8 µM (inactive) |
| C[C@@]12[C@H]3CC[C@@H]1[C@H](O)C(=O)N2CC3 | > 100 µM (inactive) | > 100 µM (inactive) | > 100 µM (inactive) | > 100 µM (inactive) | > 100 | > 100 µM (inactive) | > 100 µM (inactive) | > 100 µM (inactive) | > 100 µM (inactive) | > 100 µM (inactive) | > 100 µM (inactive) | > 100 µM (inactive) | > 100 µM (inactive) | > 100 µM (inactive) | > 100 µM (inactive) | > 100 µM (inactive) | > 100 µM (inactive) | > 100 µM (inactive) | > 100 µM (inactive) | > 100 µM (inactive) |
| CCCCCCCCCCCCCCCC(=O)Nc1ccn(C2OC(CO)C(O)C2O)c(=O)n1 (stereo not given) | 4.01 µM (inactive) | 3.08 µM (inactive) | > 100 µM (inactive) | 25.1 µM (inactive) | 17.7 | 2.77 µM (inactive) | > 45.2 µM (inactive) | 3.21 µM (inactive) | 0.94 µM (active) | 27.6 µM (inactive) | 2.05 µM (inactive) | 0.78 µM (active) | 3.78 µM (inactive) | 15.2 µM (inactive) | 41.9 µM (inactive) | 29.9 µM (inactive) | 0.6 µM (active) | 30.1 µM (inactive) | 78.3 µM (inactive) | 3.4 µM (inactive) |
| O=c1ssc2ncccc12 | 16.9 µM (inactive) | 17.4 µM (inactive) | 30.2 µM (inactive) | 19.8 µM (inactive) | 12.1 | 42.4 µM (inactive) | 46.3 µM (inactive) | 17.9 µM (inactive) | 13.8 µM (inactive) | 15.4 µM (inactive) | 28.8 µM (inactive) | 20.4 µM (inactive) | 44 µM (inactive) | 22.1 µM (inactive) | 24.8 µM (inactive) | 13.2 µM (inactive) | 48.2 µM (inactive) | 46 µM (inactive) | 20.3 µM (inactive) | 16.4 µM (inactive) |
| Cc1c2oc3c(C)ccc(C(=O)NC4C(=O)NC(C(C)C)C(=O)N5CCCC5C(=O)N(C)CC(=O)N(C)C(C(C)C)C(=O)OC4C)c3nc-2c(C(=O)NC2C(=O)NC(C(C)C)C(=O)N3CCCC3C(=O)N(C)CC(=O)N(C)C(C(C)C)C(=O)OC2C)c(N)c1=O (stereo not given) (I: TVP[Sar][NMeV] / II: TVP[Sar][NMeV]; ester I:1-I:C, II:1-II:C; linker I:N-II:N via Actinocin(9to1); configuration not given here) | 0.000143 µM (active) | 0.000213 µM (active) | 0.00416 µM (active) | 0.00684 µM (active) | 0.0123 | 0.00017 µM (active) | 0.000143 µM (active) | 0.00256 µM (active) | < 0.0001 µM (active) | 0.000461 µM (active) | 0.000556 µM (active) | < 0.0001 µM (active) | 0.000428 µM (active) | < 0.0001 µM (active) | 0.000764 µM (active) | 0.000351 µM (active) | < 0.0001 µM (active) | 0.000507 µM (active) | 0.000957 µM (active) | 0.0152 µM (active) |
| CC(C)=CCC[C@@H](C)[C@H]1CC[C@@]2(C)[C@@H]3CC[C@H]4C(C)(C)[C@@H](O)CC[C@@]45C[C@@]35CC[C@]12C [CYCLOARTENOL] | 43.8 µM (inactive) | 31.5 µM (inactive) | 37.2 µM (inactive) | > 31.6 µM (inactive) | > 100 | 33.7 µM (inactive) | 33.4 µM (inactive) | 41 µM (inactive) | 31.8 µM (inactive) | > 41.9 µM (inactive) | 22.7 µM (inactive) | 17.8 µM (inactive) | > 71.8 µM (inactive) | 27.7 µM (inactive) | 39.4 µM (inactive) | > 44.4 µM (inactive) | 24.3 µM (inactive) | 51.4 µM (inactive) | > 100 µM (inactive) | > 40.7 µM (inactive) |
| O=C1c2ccccc2-n2c1nc1ccccc1c2=O [TRYPTANTHRIN] | 28.2 µM (inactive) | 2 µM (inactive) | 13.4 µM (inactive) | 29.4 µM (inactive) | 3.6 | 3.71 µM (inactive) | 17.1 µM (inactive) | 5.65 µM (inactive) | 7.19 µM (inactive) | 1.85 µM (inactive) | 9.73 µM (inactive) | 1.44 µM (inactive) | 0.649 µM (active) | 19.9 µM (inactive) | 15.8 µM (inactive) | 13.1 µM (inactive) | 8.47 µM (inactive) | 8.87 µM (inactive) | 3.02 µM (inactive) | 5.06 µM (inactive) |
